Results published in PubChem BioAssay (NCI).
Values joined by “and” are separate entries in the source; they are usually repeats but may differ in a detail not shown here. Equal entries are not always repeated.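 Exposure lasted 48 hours, with cells grown in 96-well plates and compounds tested at five concentrations. The concentration for 50% growth inhibition is given as GI50. The concentration for full growth arrest is given as TGI.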

Assays:
Assay in all cases: inhibition of tumour cell growth, NCI panel, 48 h
ACHN renal = system: ACHN renal
NCI/ADR-RES ovarian = system: NCI/ADR-RES ovarian
LOX IMVI melanoma = system: LOX IMVI melanoma
MDA-MB-435 = system: MDA-MB-435
UACC-62 melanoma = system: UACC-62 melanoma
HCT-15 colon = system: HCT-15 colon
SR leukemia = system: SR leukemia
EKVX NSCLC = system: EKVX NSCLC
HCT-116 colon = system: HCT-116 colon
PC-3 prostate = system: PC-3 prostate

Structure (SMILES) | TGI (ACHN renal) [µM] | TGI (NCI/ADR-RES ovarian) [µM] | TGI (LOX IMVI melanoma) [µM] | TGI (MDA-MB-435) [µM] | TGI (UACC-62 melanoma) [µM] | TGI (HCT-15 colon) [µM] | TGI (SR leukemia) | TGI (EKVX NSCLC) [µM] | TGI (HCT-116 colon) [µM] | TGI (PC-3 prostate) [µM] | GI50 (NCI/ADR-RES ovarian) [µM] | GI50 (LOX IMVI melanoma) [nM] | GI50 (MDA-MB-435) [nM] | GI50 (UACC-62 melanoma) [nM] | GI50 (HCT-15 colon) [nM] | GI50 (SR leukemia) [nM] | GI50 (EKVX NSCLC) [nM] | GI50 (HCT-116 colon) [nM] | GI50 (PC-3 prostate) [nM] | GI50 (ACHN renal) [nM]
CCNCCC1(CC)C(=O)NC(=O)NC1=O | > 100 | > 100 | > 100 | > 100 | > 100 | > 100 | > 100 µM | > 100 | > 100 | > 100 |  |  |  |  |  |  |  |  |  | 
NC(=NCCCC1(c2ccccc2)CCCC1)Nc1ccc(Cl)cc1 |  | 3.34 | 2.93 | 3.21 | 3.2 | 3.29 | 4.24 µM | 3.57 | 2.86 | 3.12 | 1.77 | 1580 | 1770 | 1680 | 1750 | 1710 | 1870 | 1440 | 1600 | 
Cc1ccc2c(c1)C(C)Cc1c(ncnc1-n1cnc3cc(C)ccc31)N2C (configuration not stated) | 12 | 54.3 | 12.2 |  | 16.7 | 11.7 | 13.4 µM | 23.8 | 5.21 | 16.5 | 0.0374 | 36.1 |  | 86 | 33.4 | 44.9 | 63.4 | 31.6 | 43.4 | 45.9
O=C1/C=C/[C@@H](O)[C@@H]2C[C@@H](O)C[C@H]2/C=C/CCC[C@H](CCc2ccc(C(F)(F)F)cc2)O1 | > 100 | 9.58 | 0.423 | > 72.1 | 17.3 | 2.36 | 3.16 µM | 6.67 | 0.607 | > 83.3 | 0.191 | 161 | 243 | 169 | 340 | 311 | 252 | 251 | 401 | 410
COc1c2c3ccccc3nc-2n(C)c2ccccc12 | 19.4 | 34.8 | 26.3 | 38.3 | 33 | 50.6 | > 100 µM | 57.2 | 81.7 | 20.5 | 7.33 | 4730 | 13900 | 11100 | 5290 | 7100 | 13700 | 4180 | 5250 | 3330
CCC(=O)C1(c2ccccc2)CCN(C)CC1 | > 100 | > 100 |  |  |  | > 100 | > 100 µM | > 100 | > 100 | > 100 |  |  |  |  |  |  |  |  |  | 
COc1ccc(CCN2CCCN3C2=Nc2ccccc2S3(=O)=O)cc1 | > 100 | 6.8 | > 100 |  | > 100 | > 100 | > 100 µM | > 100 | 16.4 | > 100 | 0.3 | 669 |  | 744 | 342 | 193 | 18800 | 444 | 529 | 736
C=CC(=O)N1C/C(=C\c2ccccc2)C(=O)/C(=C/c2ccccc2)C1 | 4.53 | > 27.1 | 0.638 | 2.1 | 3.68 | 4 | 0.935 µM and 5.24 µM | 9.42 | 0.397 | 3.91 |  | 357 | 270 |  |  | 566 |  | 355 |  | 
CC(C)CC1C(=O)N2CCC[C@H]2C2(O)O[C@](NC(=O)C3C=C4c5cccc6[nH]c(Br)c(c56)C[C@H]4N(C)C3)(C(C)C)C(=O)N12 (some centres not stated) | > 100 | > 100 | > 100 | > 100 | > 100 | > 100 | > 100 µM | > 100 | > 100 | > 100 | 8.29 | 21600 | 16700 | 29700 | 7050 | 33700 | 3700 |  | 3000 | 8900
COc1cc2c(F)nccc2cc1C(=O)N[C@@H](c1ccc(F)c(Cl)c1)[C@@H]1C[C@@H](O)CN1 | 22.3 | 47 | 22.4 | 17 | 16.9 | 16.4 | > 41.9 µM | 17.8 | 17.2 | > 43.3 | 14 | 10200 | 2000 | 514 | 838 |  | 2020 | 3310 | 540 | 9590
COC(=O)[C@H]1C(=O)[C@@]2(C)[C@H]([C@H](OC(=O)c3ccccc3)[C@]3(O)C[C@H](OC(=O)[C@H](O)[C@@H](NC(=O)c4ccc(F)cc4)c4ccccc4)C(C)=C1C3(C)C)[C@]1(OC(C)=O)CO[C@@H]1C[C@@H]2O | > 25 | > 25 | > 25 | 0.00604 | > 25 | > 25 | 1.69 µM | > 25 | > 25 | > 25 | 4.61 | 9.74 | 2.5 | 12.2 | 553 | 4.28 | 18.1 | 4.32 | 16.4 | 1600
CCCCCCCCCCCCCCCCOCC(CN(C)CCN(C)C)OCCCCCCCCCCCCCCCC (configuration not stated) | > 100 |  | > 100 |  | > 100 | > 100 | > 100 µM | > 100 | > 100 |  |  |  |  |  |  |  |  |  |  | 
C=C(C)[C@@H]1CC[C@]2(C(N)=O)CC[C@]3(C)[C@H](CC[C@@H]4[C@@]5(C)CC[C@H](O)C(C)(C)[C@@H]5CC[C@]43C)[C@@H]12 | 6.82 | 12.5 | 3.23 | > 100 | 23.1 | 12.3 | 23.5 µM | 18.2 | 3.96 | 14.7 | 3.17 | 1770 | 8650 | 4200 | 3280 | 4140 | 2960 | 1970 | 2830 | 2440
CC1CN(c2ccc(Cl)cc2)CC(C)(C)OC(=O)O1 (configuration not stated) | > 100 |  | > 100 |  | > 100 | > 100 | > 100 µM | > 100 | > 100 |  |  |  |  |  |  |  |  |  |  | 
